Assay results: PMC10124317 (Biochemistry, 2023)

Target: HDAC1 (Homo sapiens, UniProt Q13547)
Conditions: HDAC1 0.1 μM preincubated 10 min with 5 μM TSA, then 1b or 2b

Sequence of HDAC1 (Q13547 whole entry): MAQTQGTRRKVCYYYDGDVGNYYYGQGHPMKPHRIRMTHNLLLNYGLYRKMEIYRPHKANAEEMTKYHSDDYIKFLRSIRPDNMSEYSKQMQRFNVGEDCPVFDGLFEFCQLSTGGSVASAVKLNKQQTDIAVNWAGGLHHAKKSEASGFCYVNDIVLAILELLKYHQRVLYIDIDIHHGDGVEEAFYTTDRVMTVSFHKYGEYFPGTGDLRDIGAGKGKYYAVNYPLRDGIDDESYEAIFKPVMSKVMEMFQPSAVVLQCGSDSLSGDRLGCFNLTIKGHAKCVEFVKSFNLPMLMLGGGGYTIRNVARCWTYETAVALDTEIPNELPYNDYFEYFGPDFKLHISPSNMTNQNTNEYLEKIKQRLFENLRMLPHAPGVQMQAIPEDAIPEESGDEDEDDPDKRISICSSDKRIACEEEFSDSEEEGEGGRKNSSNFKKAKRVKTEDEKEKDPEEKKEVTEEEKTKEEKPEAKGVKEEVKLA

covalent modification of HDAC1 remaining after preincubation with TSA: ~ 10%
Substance: trichostatin A [TSA]
